# Data as given in patent US7189749B2, “Substituted phenoxyacetic acids” (The Institutes for Pharmaceutical Discovery LLC, priority 1999, dated 2007).
# Read-outs that look alike come from different tables or passages of the source.
# Columns and labels:
# [1] = target: human aldose reductase (hALR2) (Homo sapiens, UniProt P15121); experiment: inhibition of human aldose reductase (hALR2), methods similar to Butera et al.; format: biochemical
# Method: Representative compounds of the invention were tested for their potency, selectivity and efficacy as inhibitors of human aldose reductase.
# [2] = target: T1, human aldehyde reductase (hALR1) (Homo sapiens, UniProt P14550); experiment: inhibition of human aldehyde reductase (hALR1), methods essentially of Ishii et al.; format: biochemical; conditions: for IC50: concentration required to inhibit human aldehyde reductase activity by 50%; for hALR1/hALR2: ratio of hALR1 IC50 to hALR2 IC50, selectivity
# T1 sequence (P14550 1-325): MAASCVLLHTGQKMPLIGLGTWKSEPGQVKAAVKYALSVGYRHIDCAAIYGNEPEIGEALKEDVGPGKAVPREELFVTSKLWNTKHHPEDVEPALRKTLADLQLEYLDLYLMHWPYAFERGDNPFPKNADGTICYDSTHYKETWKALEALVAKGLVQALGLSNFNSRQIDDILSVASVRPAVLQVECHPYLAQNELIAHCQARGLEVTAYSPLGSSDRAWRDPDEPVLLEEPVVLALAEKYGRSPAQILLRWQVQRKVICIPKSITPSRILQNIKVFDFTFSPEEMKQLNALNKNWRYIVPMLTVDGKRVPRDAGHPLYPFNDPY
# Method: In a second assay, a number of the same compounds were tested for their ability to inhibit aldehyde reductase (hAR1), a structurally related enzyme. […] Using this assay, the concentrations required to inhibit human aldehyde reductase activity by 50% (ICSO) were determined.
# Since high potency of test compounds as inhibitors of aldose reductase is desirable, low hALR2 IC50 values are sought. On the other hand, high potency of test compounds as inhibitors of aldehyde reductase is undesirable, and high hALR1 IC50s values are sought. Accordingly, the hALR1/hALR2 ratio is used to determine the selectivity of the test compounds.
# [3] = concentration required to inhibit human aldose reductase activity by 50%
"IC50 [1, 3]",IC50 [2],hALR1/hALR2 [2],Structure (SMILES),further results
0.03 µM,14 µM,470,"O=C(O)COc1cc(Cl)ccc1C(=O)NCc1ccc(Br)cc1F [Example 1, [2-(4-Bromo-2-fluoro-benzylcarbamoyl)-5-chloro-phenoxy]-acetic acid]",–
0.039 µM,–,–,"O=C(O)COc1cc(Cl)ccc1C(=O)NCc1cccc(C(F)(F)F)c1 [Example 4, [5-Chloro-2-(3-trifluoromethyl-benzylcarbamoyl)-phenoxy]-acetic acid]",–
0.029 µM,–,–,"O=C(O)COc1cc(Cl)ccc1C(=O)NCc1cc(F)cc(C(F)(F)F)c1 [Example 11, [5-Chloro-2-(3-fluoro-5-trifluoromethyl-benzylcarbamoyl)-phenoxy]-acetic acid]",–
0.034 µM,18 µM,530,"O=C(O)COc1cc(Cl)ccc1C(=O)NCc1ccc(Cl)c(Cl)c1 [Example 14, [5-Chloro-2-(3,4-dichloro-benzylcarbamoyl)-phenoxy]-acetic acid]",–
0.046 µM,18 µM,390,"O=C(O)COc1ccc(Cl)cc1C(=O)NCc1ccc(Br)cc1F [Example 17, [2-(4-Bromo-2-fluoro-benzylcarbamoyl)-4-chloro-phenoxy]-acetic acid]",–
0.15 µM,–,–,"O=C(O)COc1ccc(F)cc1C(=O)NCc1ccc(Br)cc1F [Example 18, [2-(4-Bromo-2-fluoro-benzylcarbamoyl)-4-fluoro-phenoxy]-acetic acid]",–
0.064 µM,–,–,"O=C(O)COc1ccc(Br)cc1C(=O)NCc1ccc(Br)cc1F [Example 19, [4-Bromo-2-(4-bromo-2-fluoro-benzylcarbamoyl)-phenoxy]-acetic acid]",–
0.069 µM,11 µM,160,"Cc1ccc(OCC(=O)O)c(C(=O)NCc2ccc(Br)cc2F)c1 [Example 20, [2-(4-Bromo-2-fluoro-benzylcarbamoyl)-4-methyl-phenoxy]-acetic acid]",–
0.2 µM,–,–,"O=C(O)COc1ccc([N+](=O)[O-])cc1C(=O)NCc1ccc(Br)cc1F [Example 21, [2-(4-Bromo-2-fluoro-benzylcarbamoyl)-4-nitro-phenoxy]-acetic acid]",–
0.18 µM,–,–,"O=C(O)COc1ccccc1C(=O)NCc1ccc(Br)cc1F [Example 23, [2-(4-Bromo-2-fluoro-benzylcarbamoyl)-phenoxy]-acetic acid]",–
0.083 µM,–,–,"CSc1ccc(C(=O)NCc2ccc(Br)cc2F)c(OCC(=O)O)c1 [Example 24, [2-(4-Bromo-2-fluoro-benzylcarbamoyl)-5-methylsulfanyl-phenoxy]-acetic acid]",–
0.009 µM,–,–,"O=C(O)COc1ccc(OC(F)(F)F)cc1C(=O)NCc1cccc([N+](=O)[O-])c1 [Example 26, [2-(3-nitro-benzylcarbamoyl)-4-trifluoromethoxy-phenoxy]-acetic acid]",–
0.008 µM,34 µM,"4,300","O=C(O)COc1cc(F)ccc1C(=O)NCc1cccc([N+](=O)[O-])c1 [Example 27, [5-Fluoro-2-(3-nitro-benzylcarbamoyl)-phenoxy]-acetic acid]",–
0.055 µM,6.6 µM,120,"O=C(O)COc1cc(F)ccc1C(=O)NCc1ccc(Br)cc1F [Example 28, [2-(4-Bromo-2-fluoro-benzylcarbamoyl)-5-fluoro-phenoxy]-acetic acid]",–
0.008 µM,–,–,"Cc1ccc(CNC(=O)c2ccc(F)cc2OCC(=O)O)cc1[N+](=O)[O-] [Example 29, [5-Fluoro-2-(4-methyl-3-nitro-benzylcarbamoyl)-phenoxy]-acetic acid]",–
0.037 µM,–,–,"O=C(O)COc1cc(F)c(F)cc1C(=O)NCc1ccc(Br)cc1F [Example 30, [2-(4-Bromo-2-fluoro-benzylcarbamoyl)-4,5-difluoro-phenoxy]-acetic acid]",–

"IC50 [1, 3]",IC50 [2],hALR1/hALR2 [2],Structure (SMILES),further results
0.006 µM,35 µM,"5,800","O=C(O)COc1cc(F)ccc1C(=S)NCc1cccc([N+](=O)[O-])c1 [Example 32, [5-Fluoro-2-(3-nitro-benzylthiocarbamoyl)-phenoxy]-acetic acid]",–
0.037 µM,–,–,"O=C(O)COc1ccc(Br)cc1C(=S)NCc1ccc(Br)cc1F [Example 34, [4-Bromo-2-(4-bromo-2-fluoro-benzylthiocarbamoyl)-phenoxy]-acetic acid]",–
0.012 µM,–,–,"O=C(O)COc1ccc(OC(F)(F)F)cc1C(=S)NCc1cccc([N+](=O)[O-])c1 [Example 35, [2-(3-Nitro-benzylthiocarbamoyl)-4-trifluoromethoxy-phenoxy]-acetic acid]",–
0.033 µM,–,–,"O=C(O)COc1cc(F)c(F)cc1C(=S)NCc1ccc(Br)cc1F [Example 36, [2-(4-Bromo-2-fluoro-benzylthiocarbamoyl)-4,5-difluoro-phenoxy]-acetic acid]",–
0.024 µM,5.8 µM,240,"Cc1cc(C(=O)NCc2ccc(Br)cc2F)c(OCC(=O)O)cc1F [Example 45, [2-(4-Bromo-2-fluoro-benzylcarbamoyl)-5-fluoro-4-methyl-phenoxy]-acetic acid]",–
0.024 µM,31 µM,"1,300","Cc1cc(C(=S)NCc2ccc(Br)cc2F)c(OCC(=O)O)cc1F [Example 46, [2-(4-Bromo-2-fluoro-benzylthiocarbamoyl)-5-fluoro-4-methyl-phenoxy]-acetic acid]",–
0.008 µM,–,–,"Cc1cc(C(=O)NCc2cccc([N+](=O)[O-])c2)c(OCC(=O)O)cc1F [Example 47, [2-(3-Nitro-benzylcarbamoyl)-5-fluoro-4-methyl-phenoxy]-acetic acid]",–
0.007 µM,–,–,"Cc1cc(C(=S)NCc2cccc([N+](=O)[O-])c2)c(OCC(=O)O)cc1F [Example 48, [2-(3-Nitro-benzylthiocarbamoyl)-5-fluoro-4-methyl-phenoxy]-acetic acid]",–
0.006 µM,44 µM,"7,300","O=C(O)COc1cc(F)c(Br)cc1C(=O)NCc1cccc([N+](=O)[O-])c1 [Example 49, [4-Bromo-5-fluoro-2-(3-nitro-benzylcarbamoyl)-phenoxy]-acetic acid]",–
0.007 µM,14 µM,"2,000","O=C(O)COc1cc(F)c(-c2ccccc2)cc1C(=O)NCc1cccc([N+](=O)[O-])c1 [Example 50, [5-(3-Nitro-benzylcarbamoyl)-2-fluoro-biphenyl-4-yloxy]-acetic acid]",–
0.011 µM,12 µM,"1,100","O=C(O)COc1cc(F)c(-c2ccccc2)cc1C(=S)NCc1cccc([N+](=O)[O-])c1 [Example 51, [5-(3-Nitro-benzylthiocarbamoyl)-2-fluoro-biphenyl-4-yloxy]-acetic acid]",–
0.007 µM,–,–,"N#Cc1cc(C(=O)NCc2cccc([N+](=O)[O-])c2)c(OCC(=O)O)cc1F [Example 52, [2-(3-Nitro-benzylcarbamoyl)-4-cyano-5-fluoro-phenoxy]-acetic acid]",–
0.007 µM,54 µM,–,"O=C(O)COc1cc(F)c(N2CCOCC2)cc1C(=O)NCc1cccc([N+](=O)[O-])c1 [Example 53, [2-(3-Nitro-benzylcarbamoyl)-5-fluoro-4-morpholin-4-yl-phenoxy]-acetic acid]",–
0.015 µM,17 µM,"1,100","O=C(O)COc1cc(F)ccc1C(=S)NCc1nc2c(F)c(F)cc(F)c2s1 [Example 55, {5-Fluoro-2-[(4,5,7-trifluoro-benzothiazol-2-ylmethyl)-thiocarbamoyl]-phenoxy}-acetic acid]",–
0.035 µM,–,–,"O=C(O)COc1cc(Cl)ccc1C(=O)NCc1nc2cc(C(F)(F)F)ccc2s1 [Example 57, {5-Chloro-2-[(5-trifluoromethyl-benzothiazol-2-ylmethyl)-carbamoyl]-phenoxy}-acetic acid]",–

Structure (SMILES),"IC50 [1, 3]",IC50 [2],hALR1/hALR2 [2],further results
"O=C(O)COc1cc(Cl)ccc1C(=O)NCc1cccc([N+](=O)[O-])c1 [Example 5, [2-(3-Nitro-benzylcarbamoyl)-5-chloro-phenoxy]-acetic acid]",–,–,">4,200",IC50 [1]: 0.006 µM; inhibition at 25 µM ([2]; read-out: hALR1 (aldehyde) % inhibition @ 25 μM): 19%
"Cc1ccc(OCC(=O)O)c(C(=O)NCc2cccc([N+](=O)[O-])c2)c1 [Example 25, [2-(3-Nitro-benzylcarbamoyl)-4-methyl-phenoxy]-acetic acid]",0.011 µM,–,">9,100",inhibition at 100 µM ([2]; read-out: hALR1 (aldehyde) % inhibition @ 100 μM): 48%
"O=C(O)COc1cc(F)ccc1C(=S)NCc1ccc(Br)cc1F [Example 33, [2-(4-Bromo-2-fluoro-benzylthiocarbamoyl)-5-fluoro-phenoxy]-acetic acid]",0.034 µM,33 µM,970,–
"O=C(O)COc1cc(F)ccc1C(=O)NCc1nc2c(F)c(F)cc(F)c2s1 [Example 54, {5-Fluoro-2[(4,5,7-trifluoro-benzothiazol-2-ylmethyl)carbamoyl]-phenoxy}-acetic acid]",0.011 µM,22 µM,"2,000",–
"O=C(O)COc1cc(F)ccc1C(=O)NCc1nc2cc(C(F)(F)F)ccc2s1 [Example 56, {5-Fluoro-2-[(5-trifluoromethyl-benzothiazol-2-ylmethyl)-carbamoyl]-phenoxy}-acetic acid]",0.029 µM,22 µM,760,–
